Laboratory results reported in US8026228B2, “Estrogenic compounds in combination with progestogenic compounds in hormone-replacement therapy” (Pantarhei Bioscience B.V., priority 2001, dated 2011).

Columns and labels:
[1] = target: T1, human sex Hormone Binding Globulin (SHBG) (Homo sapiens, UniProt P04278); experiment: Competitive steroid-binding assay; conditions: [^3H]DHT or [^3H]estradiol as labeled ligands; order ethinylestradiol, 17β-estradiol, testosterone, 5α-dihydrotestosterone
T1 construct: Human SHBG was purified from transgenic mouse serum; made in house; host or cells: transgenic mouse (serum)
T1 sequence (P04278 30-402): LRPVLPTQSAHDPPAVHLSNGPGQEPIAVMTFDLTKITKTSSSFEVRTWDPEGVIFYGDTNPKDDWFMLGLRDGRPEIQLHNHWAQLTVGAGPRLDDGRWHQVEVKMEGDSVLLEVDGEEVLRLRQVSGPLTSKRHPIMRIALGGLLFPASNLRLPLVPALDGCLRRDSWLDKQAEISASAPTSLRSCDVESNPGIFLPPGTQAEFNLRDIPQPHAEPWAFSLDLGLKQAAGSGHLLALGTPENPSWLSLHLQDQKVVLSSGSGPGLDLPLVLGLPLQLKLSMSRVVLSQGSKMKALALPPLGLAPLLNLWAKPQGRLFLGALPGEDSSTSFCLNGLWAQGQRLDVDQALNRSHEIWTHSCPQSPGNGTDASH
Method: Human SHBG was treated for 30 min at room temperature with a dextran-coated charcoal (DCC) suspension in phosphate buffered saline (PBS) to remove any steroid ligand. After centrifugation (2,000×g for 10 min) to sediment the DCC, the supernatant containing the human SHBG was diluted in PBS to a concentration of 1 nM based on its steroid binding capacity.
The average amounts of [^3H]labeled ligands bound to SHBG at each concentration of competitor (B) were expressed as a percentage of the average amounts of [^3H]labeled ligands bound to SHBG in the absence of competitor (B0), and were plotted against the concentration of competitor in each assay tube.

Sham- and OVX-rats [2] = experiment: Osteoporosis model: indentation test of distal femur (bone strength); type: in vivo, rat; conditions: oral treatment, dose-dependent
Method: (§1) The ovariectomized aged rat was used as a model for the human disease osteoporosis. This is an established animal model, recommended by the United States Food and Drug Administration (FDA), to evaluate and assess potential agents for osteoporosis prevention and therapy. The anti-resorptive efficacy of estetrol (E4) was tested by ex vivo measuring total and trabecular bone mineral density and bone strength after 4 weeks of treatment at necropsy. 17α-ethinyl-estradiol (EE) and vehicle (1% ethanol/arachidis oil) served as controls in this bioassay.
Three months old female Sprague-Dawley rats were either sham-operated (Sham) or ovariectomized (OVX) one day prior to commencement of the dosing study. Animals were anesthetized using a ketamine/xylazine anesthetic mixture and underwent a bilateral ovariectomy or were sham-treated. A section of hair on the dorsal surface was shaved and an incision made overlying the lumbar region of the spine. The skin was separated from the underlying fascia so that a second incision could be made through the abdominal musculature approximately caudal to the kidneys. […]
(§2) Data are expressed as the mean values obtained for each group (n=10).
The maximum load, stiffness and energy absorbed were determined from load displacement curves. Ultimate strength was calculated by dividing the maximum load by the indenter area. […]

[3] = target: T2, rat uterine nuclear estrogen receptor (Rattus norvegicus, UniProt P06211); conditions: Martucci et al. 1976; cited from earlier work
T2 construct: rat uterine cytosol estrogen receptor; host or cells: rat uterus (cytosol; nuclear fraction)
T2 sequence (P06211 1-600): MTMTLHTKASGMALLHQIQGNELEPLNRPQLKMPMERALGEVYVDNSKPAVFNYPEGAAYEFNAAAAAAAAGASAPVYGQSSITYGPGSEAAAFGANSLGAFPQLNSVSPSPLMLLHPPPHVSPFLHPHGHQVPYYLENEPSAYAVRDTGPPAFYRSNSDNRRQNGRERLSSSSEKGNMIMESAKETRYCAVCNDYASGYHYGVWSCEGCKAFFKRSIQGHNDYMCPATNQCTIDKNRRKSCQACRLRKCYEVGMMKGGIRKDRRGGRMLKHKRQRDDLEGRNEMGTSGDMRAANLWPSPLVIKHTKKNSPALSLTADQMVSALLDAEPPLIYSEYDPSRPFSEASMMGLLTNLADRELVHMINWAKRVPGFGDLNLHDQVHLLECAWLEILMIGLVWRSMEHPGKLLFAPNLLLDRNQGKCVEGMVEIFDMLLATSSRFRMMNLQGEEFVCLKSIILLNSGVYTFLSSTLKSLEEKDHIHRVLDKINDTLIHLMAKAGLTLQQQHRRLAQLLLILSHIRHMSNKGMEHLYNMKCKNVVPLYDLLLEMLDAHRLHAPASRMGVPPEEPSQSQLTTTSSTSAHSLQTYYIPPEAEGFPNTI

[4] = test system: morphine-dependent ovariectomized (OVX) rat; experiment: Hot flush model: naloxone-induced tail skin temperature rise; type: in vivo
Method: The morphine-dependent ovariectomized (OVX) rat was used as a model for postmenopausal hot flush. The potency of estetrol (E4) to prevent tail skin temperature rises, normally accompanied by a drop in core body temperature, after naloxone-induced opiate withdrawal was tested. 17α-ethinyl-estradiol (EE) and vehicle (hydroxy propyl-beta-cyclodextrin 20% wt/vol) served as controls in this bioassay.
The morphine-dependent ovariectomized (OVX) rat model has been proposed by several investigators (Katovich et al, 1986, Maturitas, 67-76; Merchenthaler et al. 1998, Maturitas, 307-316) as an animal model for the hot flush. During opiate withdrawal with the morphine antagonist naloxone, tail skin temperature (TST) rises and this rise is accompanied by a drop in core body temperature. In addition, the temperature changes are accompanied by surges in LH and a transient tachycardia. These events are similar in magnitude and temporal nature to those observed in the menopausal hot flush.
Three days prior to the commencement of dosing, animals were anesthetized using a ketamine/xylazine anesthetic mixture and underwent a bilateral ovariectomy. A section of hair on the dorsal surface was shaved and an incision made overlying the lumbar region of the spine. The skin was separated from the underlying fascia so that a second incision could be made through the abdominal musculature approximately caudal to the kidneys. The ovaries were then exteriorized and removed and the musculature was closed with a single suture. The skin incision was closed using surgical staples. Six rats per treatment group were dosed once per day for eight consecutive days prior to and including the day of naloxone-induced opiate withdrawal (the hot flush session). The dosing commenced three days after surgical removal of the ovaries and was administered by oral gavage using a syringe and stainless steel gavage needle. […]
For the hot flush manipulations the animals were placed in a test cage. […] The tail-skin temperature was recorded until it was stable and the animals were then injected with naloxone HCl (1 mg/kg). […]

immature rat uterus = conditions: continuous administration from a subcutaneous depot, Martucci et al. 1977; cited from earlier work
[5] = target: T3, rat uterine cytosol estrogen receptor (Rattus norvegicus, UniProt P06211); conditions: Martucci et al. 1976; cited from earlier work
T3 construct: rat uterine cytosol estrogen receptor; host or cells: rat uterus (cytosol; nuclear fraction)
T3 sequence (P06211 1-600): T2 sequence (P06211 1-600)

ovariectomized rats = experiment: Vaginal cornification bioassay, oral administration; type: in vivo, rat; conditions: relatively low doses 0.1 and 0.3 mg/kg/day, compared with EE
Text: Uterine weight increase in the rat is more commonly used as a measure of estrogenicity. […] In the early 1920s it was discovered that follicular fluid from the pig ovary contained a factor(s) that caused cornification/keratinization of the vaginal epithelium in the rat (Allen and Doisy, 1923, JAMA, 81, 819-821; Allen and Doisy, 1924, Am. J. Physiol., 69, 577-588). The so-called vaginal cornification response in rats subsequently provided a bioassay for testing estrogenicity. Vaginal epithelial cornification/keratinization in ovariectomized rats can be produced only by compounds considered to be true estrogens (Jones et al, 1973, Fert. Steril. 24, 284-291). […] Adult intact female CD rats were ovariectomized to induce estrogen deficiency. […] Castrate vaginal smears are indicative that complete ovariectomy was achieved. Treatment commenced following completion of the 7 days of smearing (day 0=first day of dosing). Animals were dosed, once daily for 7 consecutive days. Daily vaginal lavages continued to be obtained for 7 days after dosing was initiated in order to detect vaginal cornification, as an indication of an estrogenic response. […] Data are expressed as the number of rats showing vaginal cornification over the number of rats (ratio) treated.

Sham- and OVX-rats [6] = experiment: Osteoporosis model: ex vivo pQCT densitometry of proximal tibiae; type: in vivo, rat; conditions: po 0.1-[…], 4 weeks
Method: as §1
Three months old female Sprague-Dawley rats were either sham-operated (Sham) or ovariectomized (OVX) one day prior to commencement of the dosing study. Animals were anesthetized using a ketamine/xylazine anesthetic mixture and underwent a bilateral ovariectomy or were sham-treated. […]
Ex vivo peripheral Quantitative Computed Tomography (pQCT) was performed on the excised left tibiae using a Stratec XCT-RM and associated software (Stratec Medizintechnik GmbH, Pforzheim, Germany, software version 5.40). […] The scans were analyzed using a threshold for delineation of the external boundary. The total and trabecular bone mineral content, area and density at each site were determined. […]
as §2

[7] = test system: estrogen receptors in the human endometrium; conditions: Tseng et al. 1978; cited from earlier work
[8] = test system: human breast cancer cells (MCF-7); conditions: in vitro cell proliferation, Jozan et al. 1981; cited from earlier work
[9] = intravenous, two adult women, Fishman et al. 1970; cited from earlier work

| SMILES | relative binding affinity for human SHBG [1] | declines in maximum load, stiffness, energy and ultimate strength (Sham- and OVX-rats [2]) | relative binding affinity, of 17β-estradiol (100%) [3] | effect on naloxone-induced TST, dose dependence ([4]; oral treatment, all doses) | effect on naloxone-induced TST compared with EE ([4]; po 3.0 mg/kg/day (highest dose)) | effect on naloxone-induced TST ([4]; po 0.3, 1.0 and 3.0 mg/kg/day (three highest doses)) | uterotrophic activity (immature rat uterus) | relative binding affinity, of 17β-estradiol (100%) [5] | onset of vaginal cornification (animals responding at days 1-3) (ovariectomized rats) | total and trabecular bone mineral content and bone mineral density, dose dependence (Sham- and OVX-rats [6]) | relative binding, of 17β-estradiol [7] | agonistic potency, of the magnitude observed for 17β-estradiol [8] | excretion [9] | metabolism [9] |
| --- | --- | --- | --- | --- | --- | --- | --- | --- | --- | --- | --- | --- | --- | --- |
| C[C@]12CCC(=O)C[C@@H]1CC[C@@H]1[C@@H]2CC[C@]2(C)[C@@H](O)CC[C@@H]12 [5α-dihydrotestosterone] | in this order, show an increased relative binding affinity | – | – | – | – | – | – | – | – | – | – | – | – | – |
| C[C@]12CC[C@@H]3c4ccc(O)cc4CC[C@H]3[C@@H]1[C@@H](O)[C@@H](O)[C@@H]2O [E4, 1,3,5(10)-estratrien-3,15α,16α,17β-tetrol] | negligible | prevented the declines | 0.3% | clear dose-dependent effect | suppressive response similar to the potent oral estrogen, 17α-ethinyl estradiol (EE) | attenuated the TST | very weak uterotrophic activity | 0.5% | as fast as in EE-treated animals | consistent dose-dependent increase | 1.5% | 2% | rapidly and completely excreted in urine as the glucosiduronate | virtually no metabolism except for conjugation took place |
| C[C@]12CC[C@H]3[C@@H](CCC4=CC(=O)CC[C@@]43C)[C@@H]1CC[C@@H]2O [testosterone] | in this order, show an increased relative binding affinity | – | – | – | – | – | – | – | – | – | – | – | – | – |
